Reference: patent US10100052B2, “Compounds for the treatment of hepatitis B virus infection” (Gilead Sciences, Inc., priority 2016, dated 2018)

Columns and labels:
[1] = In vitro metabolic stability, hepatocytes (rat); type: in vitro ADME; settings: rat hepatocytes 1×10^6 cells/mL, 2 μM compound; read-out: Hepatocyte Stability T1/2 Rat (converted)
Description: (§1) For hepatocyte stability incubations, cells were obtained from BioreclamationIVT (Baltimore, Md.), thawed according to the manufacturer's directions, and resuspended to a final concentration of 1×10^6 cells/mL in Krebs-Henseleit buffer prewarmed to 37° C. The total cell count and the proportion of viable cells were determined by Trypan Blue dye exclusion using a hemocytometer. The final concentration of test compounds and positive controls was 2 μM. Incubations were carried out in duplicate wells of a 24-well plate out with gentle shaking at 37° C. under a humid atmosphere of 95% air/5% CO2 (v/v). Aliquots (50 μL) were removed after 0, 1, 3, and 6 hours and added to 100 μL quenching solution. Samples were then processed and analyzed in a manner similar to the microsomal stability samples.
(§2) Quantification of test compounds and positive controls were performed using analyte/internal standard peak area ratios (PAR) measured on a Q-Exactive mass spectrometer (Thermo Scientific, San Jose, Calif.) coupled to an Aria Transcend LX-4 multiplex UHPLC system (Thermo Scientific, San Jose, Calif.). […] Half-lives of compounds in the incubations were calculated from extracted data using GMSU/QuickCalc (Gubbs, Inc.) and data are summarized in the following Table 3.

[2] = In vitro metabolic stability, hepatocytes (human); type: in vitro ADME; settings: human hepatocytes 1×10^6 cells/mL, 2 μM compound; read-out: Hepatocyte Stability T1/2 Human (converted)
Description: as §1, §2

| SMILES | half-life at 2 μM [1] | half-life at 2 μM [2] |
| --- | --- | --- |
| COCCCOc1cc2c(cc1Cl)-c1cc(=O)c(C(=O)O)cn1[C@H](C1(C)CC1)C2 [Comparative Example 1] | 7 h | 8.9 h |
| COCCCOc1cc2c(cc1Cl)-c1cc(=O)c(C(=O)O)cn1N(C(C)(C)C)C2 [Example 2, 6-(tert-Butyl)-10-chloro-9-(3-methoxypropoxy)-2-oxo-6,7-dihydro-2H-pyrido[2,1-a]-phthalazine-3-carboxylic acid] | > 39.5 h | 26.6 h |
